Laboratory results taken from patent US20130315886A1, “RETROELEMENTS AND MENTAL DISORDERS AND METHODS OF MEASURING L1 RETROTRANSPOSITION” (Salk Institute for Biological Studies, priority 2009, published 2013).

Assays:
[1] = tested on: L1 5′UTR promoter; assay: L1 5′UTR-Luc luciferase reporter assay in MeCP2 KO neuroepithelial cells; assay type: cell-based, mouse; settings: Sox2 overexpression in MeCP2 KO neuroepithelial cells
Method: Rat NSCs were isolated, characterized and cultured as described (31,32). For neuronal differentiation, cells were cultured in N2 medium (Invitrogen) containing retinoic acid (RA, 1 μM, Sigma) and forskolin (5 μM, Sigma) for 4 days (11). Freshly isolated neuroepithelial cells from time-pregnant midgestation (E11.5) telencephalons from WT and MeCP2 KO sibling mouse embryos from the same background (C57BL/6J) were briefly cultured for 2-3 passages in FGF-2 as described elsewhere (19). Primary skin fibroblasts were isolated from tail biopsy and cultured in DMEM (Invitrogen) with 10% FBS (Invitrogen). Samples of all isolated cells were used for genotyping using previously described primers (33). Plasmid transfections were done by electroporation following the manufacturer's instructions (Amaxa Biosystem).
The L1 5′UTR-Luc plasmid was methylated by […] according to the manufacturer's protocol. Complete methylation was checked by digestion with Hpa II restriction enzyme. Luciferase activity was measured with the Dual-Luciferase reporter assay system (Promega) according to the manufacturer's protocol. Luciferase activity was usually measured 48 h after transfection. A plasmid containing the Renilla luciferase gene was used as an internal control. All the experiments were done at least 3 times independently and transfection efficiency was about 30% for all samples. […]

[2] = tested on: L1 promoter region (5′UTR); assay: Chromatin immunoprecipitation (ChIP) on the endogenous rat L1 promoter region in NSCs; assay type: cell-based; settings: 500 ng/ml, 4 days
Excerpt: ChIP assay was done essentially following the manufacturer's protocol using a ChIP assay kit (Upstate). Antibodies used were anti-MeCP2 (Upstate), Sox2 (Chemicon), and IgG. Purified DNA was amplified by PCR using primers for the rat L1 5′UTR promoter region (L1.3, accession # X03095).

[3] = tested on: MeCP2 and Sox2; assay: Co-immunoprecipitation between MeCP2 and Sox2 in NSCs; assay type: cell-based, rat; settings: in the presence of 5-Aza
Method: Immunofluorescence for EGFP was performed as previously described (11). A non-transgenic animal was used to measure the background fluorescence in the brain and to establish a threshold for detection. Western blotting was carried out using standard protocols with the following antibodies: mouse anti-Actin (1/500, Ambion), rabbit anti-MeCP2 (1/1000, Imgenex or Upstate), and rabbit anti-Sox2 (1/100, Chemicon). All secondary antibodies were purchased from Jackson ImmunoResearch. For co-immunoprecipitation, the Nuclear Complex Co-IP kit (Active Motif) was used, following the manufacturer's protocol with the highest stringency buffers.

[4] = tested on: L1 5′UTR CpG islands; assay: Bisulfite analysis of L1 5′UTR DNA methylation in NSCs; assay type: cell-based, rat; settings: treatment for 4-days
Method: Genomic DNA from NSCs was isolated using standard phenol-chloroform extraction techniques. Subsequently, DNA was digested with the restriction enzyme EcoRI and the bisulfite conversion reaction was performed using the Epitect kit (Quiagen), following manufacturer's instructions. Primers were designed based on the rat L1 sequence Mlvi2, using Methyl Primer Express; […]. PCR products were cloned into TOPO TA 2.1 plasmids (Invitrogen) and 40 bacterial colonies were analyzed by sequencing.

| Molecule | reduction of luciferase expression (L1 promoter activity) [1] | MeCP2 ChIP signal / association to the L1 promoter region [2] | Sox2 binding / association to the L1 promoter region (ChIP) [2] | MeCP2 ChIP signal / association to the L1 promoter region ([2]; listed as 5-Azacitidine) | Sox2 binding / association to the L1 promoter region (ChIP) ([2]; listed as 5-Azacitidine) | amount of MeCP2 in association with Sox2 in solution (Co-IP) [3] | methylation of the 5′UTR L1 region (5 CpG sites, bisulfite) [4] |
| --- | --- | --- | --- | --- | --- | --- | --- |
| Sox2: transcriptional factor Sox2, overexpressed in MeCP2 KO neuroepithelial cells | approximately 50% |  |  |  |  |  |  |
| Nc1ncn([C@@H]2O[C@H](CO)[C@@H](O)[C@H]2O)c(=O)n1 [5-Azacytidine] |  | the MeCP2 ChIP signal was lost | did not prevent Sox2 binding to the L1 promoter | reduced MeCP2 | not Sox2 association | increased the amount of MeCP2 in association with Sox2 in solution | completely removed methyl radicals |
